Measured values taken from patent publication US20200031778A1, “NOVEL 5-SUBSTITUTED IMIDAZOLYLMETHYL DERIVATIVES” (Bayer CropScience Aktiengesellschaft, priority 2016, published 2020).

Legend:
Septoria tritici = test: Example IX-B: in vivo preventive test on Septoria tritici (leaf spot on wheat); details: Zymoseptoria tritici, 576 h; compounds of formula IX; 500 ppm of active ingredient; wheat plants, preventive spray; evaluated 24 days after inoculation; read-out: efficacy
Protocol: Example IX-B: In Vivo Preventive Test on Septoria Tritici (Leaf Spot on Wheat)
(§1) The active ingredients are made soluble and homogenized in a mixture of Dimethyl sulfoxide/Acetone/Tween® 80 and then diluted in water to the desired concentration.
(§2) The young plants of wheat are treated by spraying the active ingredient prepared as described above. Control plants are treated only with an aqueous solution of Acetone/Dimethyl sulfoxide/Tween® 80.
After 24 hours, the plants are contaminated by spraying the leaves with an aqueous suspension of Septoria tritici spores. The contaminated wheat plants are incubated for 72 hours at 18° C. and at 100% relative humidity and then for 21 days at 20° C. and at 90% relative humidity.
The test is evaluated 24 days after the inoculation. 0% means an efficacy which corresponds to that of the control plants while an efficacy of 100% means that no disease is observed.

Uromyces appendiculatus = test: Example IX-D: in vivo preventive test on Uromyces appendiculatus (bean rust); details: 264 h, compounds of formula IX, 500 ppm of active ingredient, bean plants, preventive spray, evaluated 11 days after inoculation, read-out: efficacy
Protocol: Example IX-D: In Vivo Preventive Test on Uromyces Appendiculatus (Bean Rust)
as §1
The young plants of bean are treated by spraying the active ingredient prepared as described above. Control plants are treated only with an aqueous solution of Acetone/Dimethyl sulfoxide/Tween® 80.
After 24 hours, the plants are contaminated by spraying the leaves with an aqueous suspension of Uromyces appendiculatus spores. The contaminated bean plants are incubated for 24 hours at 20° C. and at 100% relative humidity and then for 10 days at 20° C. and at 70-80% relative humidity.
(§3) The test is evaluated 11 days after the inoculation. 0% means an efficacy which corresponds to that of the control plants while an efficacy of 100% means that no disease is observed.
control plants while an efficacy of 100% means that no disease was observed.

Puccinia recondita = test: Example IX-A: in vivo preventive test on Puccinia recondita (brown rust on wheat); details: 264 h, compounds of formula IX, 500 ppm of active ingredient, wheat plants, preventive spray, evaluated 11 days after inoculation, read-out: efficacy
Protocol: Example IX-A: In Vivo Preventive Test on Puccinia Recondita (Brown Rust on Wheat)
as §1, §2
After 24 hours, the plants are contaminated by spraying the leaves with an aqueous suspension of Puccinia recondita spores. The contaminated wheat plants are incubated for 24 hours at 20° C. and at 100% relative humidity and then for 10 days at 20° C. and at 70-80% relative humidity.
as §3

Sphaerotheca fuliginea = test: Example IX-C: in vivo preventive test on Sphaerotheca fuliginea (powdery mildew on cucurbits); details: Podosphaera fuliginea, 360 h; compounds of formula IX; 500 ppm of active ingredient; gherkin plants, preventive spray; evaluated 15 days after inoculation; read-out: efficacy
Protocol: Example IX-C: In Vivo Preventive Test on Sphaerotheca Fuliginea (Powdery Mildew on Cucurbits)
as §1
The young plants of gherkin are treated by spraying the active ingredient prepared as described above. Control plants are treated only with an aqueous solution of Acetone/Dimethyl sulfoxide/Tween® 80.
After 24 hours, the plants are contaminated by spraying the leaves with an aqueous suspension of Sphaerotheca fuliginea spores. The contaminated gherkin plants are incubated for 72 hours at 18° C. and at 100% relative humidity and then for 12 days at 20° C. and at 70-80% relative humidity.
The test is evaluated 15 days after the inoculation. 0% means an efficacy which corresponds to that of the control plants while an efficacy of 100% means that no disease is observed.

[1] = Log P by HPLC on reversed phase columns (EEC directive 79/831 Annex V.A8; methods [a], [b], [c]); type: physicochemical; details: reversed phase HPLC column; method [a]: LC-UV, acidic range, 0.1% formic acid in water and acetonitrile as eluent (linear gradient from 10% to 95% acetonitrile)
Method in brief: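 Log P derived from retention times, interpolated linearly between bracketing straight-chain alkan-2-ones (3–16 carbons) of known Log P. Eluents ran acetonitrile 10% to 95% against water with 0.1% formic acid ([a], acidic), 0.001 M ammonium acetate ([b], neutral) or 0.1% phosphoric acid ([c], acidic); UV read-out.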

Structure (SMILES)	chromatographic logP [1]	pest or weed control at 500 ppm (Septoria tritici) [%]	pest or weed control at 500 ppm (Uromyces appendiculatus) [%]	pest or weed control at 500 ppm (Puccinia recondita) [%]	pest or weed control at 500 ppm (Sphaerotheca fuliginea) [%]
O=C(Cn1cncc1C(F)(F)F)c1ccc(Oc2ccc(Cl)cc2)cc1F [IX-80]	3.85	90 to 100	90 to 100	90 to 100	90 to 100
O=C(Cn1cncc1F)c1cnc(Oc2ccc(Cl)cc2)cc1Cl [IX-94]	2.32	90 to 100	90 to 100	80 to 89	90 to 100
O=C(Cn1cncc1F)c1ccc(Oc2ccc(Cl)cc2)nc1F [IX-88]	2.14	90 to 100	80 to 89	70 to 79	90 to 100
N#Cc1cncn1CC(=O)c1ccc(Oc2ccc(Cl)nc2)cc1Cl [IX-60]	2.62	90 to 100	90 to 100	80 to 89	90 to 100
O=C(Cn1cncc1Cl)c1ccc(Oc2ccc(Cl)cc2)cc1C(F)(F)F [IX-30]	3.37	90 to 100	90 to 100	70 to 79	80 to 89
O=C(Cn1cncc1Cl)c1ccc(Oc2ccc(OC(F)(F)F)cc2)cc1Cl [IX-09]	3.37	90 to 100	90 to 100	90 to 100	90 to 100
O=C(Cn1cncc1Br)c1ccc(Oc2ccc(Br)cc2)cc1Cl [IX-39, 1-[4-(4-bromophenoxy)-2-chloro-phenyl]-2-(5-bromoimidazol-1-yl)ethanone]	3.1	90 to 100	90 to 100	90 to 100	90 to 100
O=C(Cn1cncc1Cl)c1ccc(Oc2ccc(Cl)cc2)cc1Cl [IX-04]	3.17	90 to 100	90 to 100	90 to 100	90 to 100
N#Cc1cncn1CC(=O)c1ccc(Oc2ccc(S(F)(F)(F)(F)F)cc2)nc1Cl [IX-74]	3.42	90 to 100	90 to 100	90 to 100	90 to 100
O=C(Cn1cncc1F)c1cnc(Oc2ccc(Br)cc2)cc1C(F)(F)F [IX-82, 1-[6-(4-bromophenoxy)-4-(trifluoromethyl)-3-pyridyl]-2-(5-fluoroimidazol-1-yl)ethanone]	2.73	90 to 100	90 to 100	70 to 79	90 to 100
O=C(Cn1cncc1Cl)c1ccc(Oc2ccc(Br)nc2)cc1Cl [IX-78]	2.32	90 to 100	90 to 100	80 to 89	90 to 100
O=C(Cn1cncc1F)c1ccc(Oc2ccc(C(F)F)cc2)nc1Cl [IX-84]	2.12	90 to 100	90 to 100	80 to 89	90 to 100
N#Cc1cncn1CC(=O)c1ccc(Oc2ccc(Br)cn2)cc1Cl [IX-77]	2.94	90 to 100	90 to 100	90 to 100	90 to 100
N#Cc1cncn1CC(=O)c1cnc(Oc2ccc(C(F)(F)F)cc2)cc1C(F)(F)F [IX-89]	3.42	90 to 100	90 to 100	80 to 89	90 to 100
O=C(Cn1cncc1F)c1cnc(Oc2ccc(C(F)(F)F)cc2)cc1Cl [IX-110]	2.56	90 to 100	90 to 100	90 to 100	90 to 100
N#Cc1cncn1CC(=O)c1cnc(Oc2ccc(Cl)cc2)cc1Br [IX-92]	3.08	90 to 100	80 to 89	80 to 89	90 to 100
N#Cc1cncn1CC(=O)c1cnc(Oc2ccc(C(F)(F)F)cc2)cc1Cl [IX-114]	3.29	90 to 100	90 to 100	90 to 100	80 to 89
O=C(Cn1cncc1Cl)c1ccc(Oc2ccc(Cl)cc2)cc1C(F)F [IX-73]	3.02	90 to 100	90 to 100	90 to 100	
N#Cc1cncn1CC(=O)c1cnc(Oc2ccc(Br)cc2)cc1C(F)F [IX-123]	2.89	90 to 100	90 to 100	90 to 100	
O=C(Cn1cncc1Br)c1ccc(Oc2ccc(Br)cc2)cc1C(F)(F)F [IX-40]	3.46	90 to 100	90 to 100	80 to 89	

Now from value to compound, other results behind:

chromatographic logP [1]	Structure (SMILES)	pest or weed control at 500 ppm (Septoria tritici) [%]	pest or weed control at 500 ppm (Uromyces appendiculatus) [%]	pest or weed control at 500 ppm (Puccinia recondita) [%]	pest or weed control at 500 ppm (Sphaerotheca fuliginea) [%]
3.16	O=C(Cn1cncc1Br)c1ccc(Oc2ccc(Br)cc2)cc1Br [IX-36]	90 to 100	90 to 100	80 to 89	90 to 100
3.53	N#Cc1cncn1CC(=O)c1ccc(Oc2ccc(Cl)cc2)cc1Br [IX-61]	80 to 89	90 to 100	90 to 100	90 to 100
3.41	O=C(Cn1cncc1Cl)c1ccc(Oc2ccc(I)cc2)cc1Cl [IX-13]	90 to 100	90 to 100	90 to 100	90 to 100
3.8	N#Cc1cncn1CC(=O)c1ccc(Oc2ccc(I)cc2)cc1Br [IX-66]	90 to 100	90 to 100	90 to 100	90 to 100
3.71	N#Cc1cncn1CC(=O)c1ccc(Oc2ccc(I)cc2)cc1Cl [IX-68]	90 to 100	90 to 100	90 to 100	90 to 100
3.55	N#Cc1cncn1CC(=O)c1ccc(Oc2ccc(Br)cc2)cc1Cl [IX-58, 1-[4-(4-bromophenoxy)-2-chloro-phenyl]-2-(5-cyanoimidazol-1-yl)ethanone]	90 to 100	90 to 100	90 to 100	90 to 100
3.33	N#Cc1cncn1CC(=O)c1ccc(Oc2ccc(Br)cc2)cc1F [IX-62]	90 to 100	90 to 100	90 to 100	90 to 100
3.19	O=C(Cn1cncc1Cl)c1ccc(Oc2ccc(I)cc2)cc1F [IX-47]	90 to 100	90 to 100	90 to 100	90 to 100
3.35	O=C(Cn1cncc1Br)c1ccc(Oc2ccc(I)cc2)cc1Cl [IX-32]	90 to 100	90 to 100	80 to 89	90 to 100
